In US20100144755A1 (Glaxo Group Limited, priority 2006, published 2010) one finds melting point, IC50 and inhibition of neutrophilia data, which are given here for 19 molecules.

Counter-ions that a name gives are not always drawn.

Data set [1] deals with TNF-stimulated IL8 production by human neutrophils. Kind of data set: TNF-stimulated IL-8 production from human neutrophils.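 Note: IL-8 in cell-free supernatant quantified by sandwich ELISA, inhibition calculated against a compound-free control.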 Format: cell-based. As to conditions: Neutrophil, TNF 100 ng/ml, about 20 hrs, bounds reflect the top concentration screened, for 202(c) and 120 a range over multiple runs with ends given as 'greater than'.
Experimental: TNF-Stimulated IL-8 Production from Human Neutrophils
The effect of test compounds on TNF-stimulated IL8 production by human neutrophils is measured as follows. Neutrophils are prepared from blood obtained from consenting donors, using standard methods. Blood is collected in heparinized syringes and layered over histopaque (30 ml/20 ml). Following centrifugation, the red cell pellet is resuspended in PBS and purified over a dextran gradient. […] Cells are added (0.5-1 ml) to 48 well plates already containing compound at 1000× final concentration in neat DMSO or 10% DMSO in RPMI1640 with 10% FBS. TNF (final concentration 100 ng/ml) is used as the stimulus. Cells incubated for approximately 20 hrs at 37° C., 5% CO2. Levels of IL-8 in the cell free supernatant are determined by sandwich ELISA, and inhibition relative to a control with DMPO but no compound is calculated.
The subject of data set [2] is influx of neutrophils to the lung in LPS-challenged rats. In words: Rat LPS neutrophilia model. The settings on record: LPS aerosol, intratracheal dosing, in at least one of the range of conditions tested, significance p<0.05. Format: in vivo. An outline of the steps:
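Compound given intratracheally (200 ul suspension or dry powder via microsprayer) to isoflurane-anesthetized rats 15 min–24 h before 15 min LPS aerosol (100 ug/ml). Lavage 4 h post-challenge; neutrophils from differential counts. % inhibition versus no-compound controls at a given concentration and pretreat time.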

In turn, `Cc1c(F)cc(C(=O)NC2CC2)cc1-c1nc(NC(CO)CO)nc2c1ccc(=O)n2-c1c(F)cccc1F` [18(e), N-cyclopropyl-3-(8-(2,6-difluorophenyl)-2-{[2-hydroxy-1-(hydroxymethyl)ethyl]amino}-7-oxo-7,8-dihydropyrido[2,3-d]pyrimidin-4-yl)-5-fluoro-4-methylbenzamide] displayed a melting point of 214.2 to 217.5 °C.

Molecule `Cc1ccc(C(=O)NC2CC2)cc1-c1nc(NC2CC(C)(C)NC(C)(C)C2)nc2c1ccc(=O)n2-c1c(F)cccc1F` [21(c)] registered a melting point of 326.3 to 327.9 °C.

As to `Cc1ccc(NC(=O)c2cn(C)cn2)cc1-c1nc(NC(CO)CO)nc2c1ccc(=O)n2-c1c(F)cccc1F` [Example 51, N-[3-(2,6-difluorophenyl)-2-{[2-hydroxy-1-(hydroxymethyl)ethyl]amino}-7-oxo-7,8-dihydropyrido[2,3-d]pyrimidin-4-yl)-4-methylphenyl]-1-methyl-1H-imidazole-4-carboxamide trifluoroacetate], in data set [1], the IC50 was > 100 nM.

In the case of `Cc1ccc(NC(=O)CCNC(=O)CCC(=O)O)cc1-c1nc(NC(CO)CO)nc2c1ccc(=O)n2-c1c(F)cccc1F` [Example 52, 4-[(3-{[3-(8-(2,6-difluorophenyl)-2-{[2-hydroxy-1-(hydroxymethyl)ethyl]amino}-7-oxo-7,8-dihydropyrido[2,3-d]pyrimidin-4-yl)-4-methylphenyl]amino}-3-oxopropyl)amino]-4-oxobutanoic acid trifluoroacetate], in data set [1], the IC50 was > 100 nM.

For the molecule `Cc1ccc(NC(=O)c2cc[nH]n2)cc1-c1nc(NC(CO)CO)nc2c1ccc(=O)n2-c1c(F)cccc1F` [Example 53, N-[3-8-(2,6-difluorophenyl-2-{[2-hydroxy-1-(hydroxymethyl)ethyl]amino}-7-oxo-7,8-dihydropyrido[2,3-d]pyrimidin-4-yl)-4-methylphenyl]-1H-pyrazole-3-carboxamide trifluoroacetate], in data set [1], the IC50 is > 100 nM.

For the molecule `Cc1ccc(N)cc1-c1nc(NC2CC(C)(C)NC(C)(C)C2)nc2c1ccc(=O)n2-c1c(F)cccc1F` [Example 110, 4-(5-amino-2-methylphenyl)-8-(2,6-difluorophenyl)-2-[(2,2,6,6-tetramethyl-4-piperidinyl)amino]pyrido[2,3-d]pyrimidin-7(8H)-one], the IC50 in data set [1] was > 100 nM.

For `Cc1ccc(N)cc1-c1nc(NC2CCNCC2)nc2c1ccc(=O)n2-c1c(F)cccc1F` [Example 111, 4-(5-amino-methylphenyl)-8-(2,6-difluorophenyl)-2-(4-piperidinylamino)-pyrido[2,3-d]pyrimidin-7(8H)-one], the IC50 in data set [1] was > 100 nM.

As to `CCN(CC)CCCNc1nc(-c2cc(C(=O)N[C@H](C)C(C)C)ccc2C)c2ccc(=O)n(-c3c(F)cccc3F)c2n1` [Example 130, 3-[2-{[3-(diethylamino)propyl]amino}-8-(2,6-difluorophenyl)-7-oxo-7,8-dihydropyrido[2,3-d]pyrimidin-4-yl]-N-[(1R)-1,2-dimethylpropyl]-4-methylbenzamide], in data set [1], the IC50 is > 10 nM. Moreover, the inhibition of neutrophilia result in data set [2] is “statistically nonsignificant inhibition”.

`CCN(CC)CCCNc1nc(-c2cc(C(=O)N[C@@H](C)C(C)C)ccc2C)c2ccc(=O)n(-c3c(F)cccc3F)c2n1` [Example 131, 3-[2-{[3-(diethylamino)propyl]amino}-8-(2,6-difluorophenyl)-7-oxo-7,8-dihydropyrido[2,3-d]pyrimidin-4-yl]-N-[(1S)-1,2-dimethylpropyl]-4-methylbenzamide]: in data set [1], the IC50 is > 10 nM.

Turning to `CCN(CC)CCCNc1nc(-c2cccc(C(=O)Nc3ccc(F)cc3)c2C)c2ccc(=O)n(-c3c(F)cccc3F)c2n1` [Example 152, 3-[2-{[3-(diethylamino)propyl]amino}-8-(2,6-difluorophenyl)-7-oxo-7,8-dihydropyrido[2,3-d]pyrimidin-4-yl]-N-(4-fluorophenyl)-2-methylbenzamide], the 50% inhibitory concentration (IC50) in data set [1] was > 100 nM.

Regarding `CCCNC(=O)c1cccc(-c2nc(NCCCN(CC)CC)nc3c2ccc(=O)n3-c2c(F)cccc2F)c1C` [Example 153, 3-[2-{[3-(diethylamino)propyl]amino}-8-(2,6-difluorophenyl)-7-oxo-7,8-dihydropyrido[2,3-d]pyrimidin-4-yl]-2-methyl-N-propylbenzamide], the IC50 in data set [1] was > 100 nM.

Turning to `CCN(CC)CCCNc1nc(-c2cccc(C(=O)NCC(C)C)c2C)c2ccc(=O)n(-c3c(F)cccc3F)c2n1` [Example 154, 3-[2-{[3-(diethylamino)propyl]amino}-8-(2,6-difluorophenyl)-7-oxo-7,8-dihydropyrido[2,3-d]pyrimidin-4-yl]-2-methyl-N-(2-methylpropyl)benzamide], in data set [1], the IC50 is > 100 nM.

Regarding `CCN(CC)CCCNc1nc(-c2cccc(C(=O)NC3CC3)c2C)c2ccc(=O)n(-c3c(F)cccc3F)c2n1` [Example 155, N-cyclopropyl-3-[2-{[3-(diethylamino)propyl]amino}-8-(2,6-difluorophenyl)-7-oxo-7,8-dihydropyrido[2,3-d]pyrimidin-4-yl]-2-methylbenzamide], the IC50 in data set [1] was > 100 nM.

For the molecule `CCN(CC)CCCNc1nc(-c2cccc(C(=O)NCC#N)c2C)c2ccc(=O)n(-c3c(F)cccc3F)c2n1` [Example 156, N-(cyanomethyl)-3-[2-{[3-(diethylamino)propyl]amino}-8-(2,6-difluorophenyl)-7-oxo-7,8-dihydropyrido[2,3-d]pyrimidin-4-yl]-2-methylbenzamide], the IC50 in data set [1] is > 100 nM.

`Cc1ccc(C(=O)NCC(C)(C)C)cc1-c1nc(N2CCC(N3CCC(C)CC3)CC2)nc2c1ccc(=O)n2-c1c(F)cccc1F` [Example 171, 3-[8-(2,6-difluorophenyl)-2-(4-methyl-1,4′-bipiperidin-1′-yl)-7-oxo-7,8-dihydropyrido[2,3-d]pyrimidin-4-yl]-N-(2,2-dimethylpropyl)-4-methylbenzamide]: the IC50 in data set [1] is > 100 nM.

For `CCN(CC)CCCNc1nc(-c2ccc(C(=O)NC(C)C)cc2)c2ccc(=O)n(-c3c(F)cccc3F)c2n1` [Example 189, 4-[2-{[3-(diethylamino)propyl]amino}-8-(2,6-difluorophenyl)-7-oxo-7,8-dihydropyrido[2,3-d]pyrimidin-4-yl]-N-(1-methylethyl)benzamide], the IC50 in data set [1] was > 100 nM.

With `CCN(CC)CCCNc1nc(-c2ccc(C(=O)NC3CC3)cc2)c2ccc(=O)n(-c3c(F)cccc3F)c2n1` [Example 190, N-cyclopropyl-4-[2-{[3-(diethylamino)propyl]amino}-8-(2,6-difluorophenyl)-7-oxo-7,8-dihydropyrido[2,3-d]pyrimidin-4-yl]benzamide], the IC50 in data set [1] is > 30 nM.

In the case of `CCN(CC)CCCNc1nc(-c2ccc(C(=O)Nc3ccc(F)cc3)cc2)c2ccc(=O)n(-c3c(F)cccc3F)c2n1` [Example 191, 4-[2-{[3-(diethylamino)propyl]amino}-8-(2,6-difluorophenyl)-7-oxo-7,8-dihydropyrido[2,3-d]pyrimidin-4-yl]-N-(4-fluorophenyl)benzamide], the IC50 in data set [1] was > 100 nM.

On to `CCN(CC)CCCNc1nc(-c2ccc(C(=O)Nc3nccs3)cc2)c2ccc(=O)n(-c3c(F)cccc3F)c2n1` [Example 192, 4-[2-{[3-(diethylamino)propyl]amino}-8-(2,6-difluorophenyl)-7-oxo-7,8-dihydropyrido[2,3-d]pyrimidin-4-yl]-N-1,3-thiazol-2-ylbenzamide], for which the half-inhibitory concentration (IC50) in data set [1] was > 100 nM.

By melting point is commonly meant the temperature of the solid-liquid transition. Usually IC50 stands for the point on the concentration scale where inhibition reaches its midpoint. A lower IC50 goes with greater potency.
